The source of these data is patent US10253027B2, “Aryl lactam kinase inhibitors” (Bristol-Myers Squibb Company, priority 2013, dated 2019).

For the first experiment, the target named is T1, GST-Xa-hAAK1 (Homo sapiens, UniProt Q2M2I8).
T1 construct: made in house
T1 sequence (Q2M2I8 whole entry): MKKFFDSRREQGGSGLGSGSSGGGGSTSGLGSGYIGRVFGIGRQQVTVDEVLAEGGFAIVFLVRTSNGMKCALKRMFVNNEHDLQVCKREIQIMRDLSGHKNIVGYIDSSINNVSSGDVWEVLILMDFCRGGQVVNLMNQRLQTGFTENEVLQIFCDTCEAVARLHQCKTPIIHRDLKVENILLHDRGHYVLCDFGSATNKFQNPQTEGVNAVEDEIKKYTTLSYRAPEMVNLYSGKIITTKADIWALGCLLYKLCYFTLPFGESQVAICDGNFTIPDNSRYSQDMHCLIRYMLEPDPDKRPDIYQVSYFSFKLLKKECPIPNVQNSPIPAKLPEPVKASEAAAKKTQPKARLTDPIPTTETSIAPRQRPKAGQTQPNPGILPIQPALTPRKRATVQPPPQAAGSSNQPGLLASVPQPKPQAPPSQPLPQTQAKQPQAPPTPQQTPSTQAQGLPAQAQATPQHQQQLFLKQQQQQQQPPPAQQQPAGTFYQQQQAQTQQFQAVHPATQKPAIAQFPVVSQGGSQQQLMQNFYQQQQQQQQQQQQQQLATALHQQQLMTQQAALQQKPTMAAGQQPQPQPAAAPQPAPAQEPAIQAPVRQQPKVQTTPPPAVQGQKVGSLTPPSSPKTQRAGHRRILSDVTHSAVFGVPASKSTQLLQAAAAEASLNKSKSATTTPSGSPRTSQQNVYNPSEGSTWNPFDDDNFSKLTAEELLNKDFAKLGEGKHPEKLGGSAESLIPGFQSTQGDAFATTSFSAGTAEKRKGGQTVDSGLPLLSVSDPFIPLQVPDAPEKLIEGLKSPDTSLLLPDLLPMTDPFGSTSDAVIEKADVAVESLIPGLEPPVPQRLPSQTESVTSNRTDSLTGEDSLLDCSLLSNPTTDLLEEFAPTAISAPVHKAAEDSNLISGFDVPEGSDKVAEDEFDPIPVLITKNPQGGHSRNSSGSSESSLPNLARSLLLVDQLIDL
The experiment is described as follows: AAK1 Kinase Assay. The experiment is classed as biochemical. Particulars: IC50 (nM), ATP 22 μM; 3 hours at room temperature; Caliper LabChip 3000. In outline: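 Bacterially expressed GST-Xa-hAAK1 was combined with substrates and compounds (eleven concentrations) and incubated 3 h at room temperature, then stopped with EDTA. Fluorescent substrate and phosphorylated product were separated electrophoretically (Caliper LabChip), and IC50 values came from non-linear regression.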
On to `COc1cc(NC(=O)[C@H](N)CC(C)C)ccc1-c1cnco1` [Example 1, (R)-2-Amino-N-(3-methoxy-4-(oxazol-5-yl)phenyl)-4-methylpentanamide], for which the IC50 (as a rule, the concentration that inhibits the measured activity by half) stood at 36 nM.

With `CC(C)C[C@@H](N)C(=O)Nc1ccc(-c2cnco2)c(OC(F)F)c1` [Example 18, (R)-2-Amino-N-(3-(difluoromethoxy)-4-(oxazol-5-yl)phenyl)-4-methylpentanamide], the IC50 is 35 nM.

`CC(C)C[C@@H](N)C(=O)Nc1ccc(-c2ccncc2)cc1-c1ccsc1` [Example 113, (R)-2-Amino-4-methyl-N-(4-(pyridin-4-yl)-2-(thiophen-3-yl)phenyl)pentanamide]: the 50% inhibitory concentration (IC50) stood at 500 nM.

For the compound `Cc1cc(NC(=O)[C@H](N)CC(C)C)ccc1-c1cnco1` [Example 13, (R)-2-Amino-4-methyl-N-(3-methyl-4-(oxazol-5-yl)phenyl)pentanamide], the IC50 came to 248 nM.

Regarding `CC(C)C1CCCNC1C(=O)Nc1ccc(-c2ccncc2)cc1` (mixture of isomers) [Example 119, 3-Isopropyl-N-(4-(pyridin-4-yl)phenyl)piperidine-2-carboxamide], the IC50 came to 33 nM.

As to `COc1cc(NC(=O)C2NCCC2C(C)C)ccc1-c1cnco1` (single isomer, unassigned) [Example 36, 3-Isopropyl-N-(3-methoxy-4-(oxazol-5-yl)phenyl)pyrrolidine-2-carboxamide], the IC50 was determined as 48 nM.

For `NC(C(=O)Nc1ccc(-c2ccncc2)cc1)C1CCCCC1C(F)(F)F` (mixture of isomers) [Example 122, 2-Amino-N-(4-(pyridin-4-yl)phenyl)-2-(2-(trifluoromethyl)cyclohexyl)acetamide], the IC50 came out at 64 nM.

Take `COc1cc(NC(=O)[C@@H](CC(C)C)NS(=O)(=O)Cc2ccccc2)ccc1-c1cnco1` [Example 72, (R)—N-(3-Methoxy-4-(oxazol-5-yl)phenyl)-4-methyl-2-(phenylmethylsulfonamido)pentanamide]: the IC50 was determined as 1300 nM.

Take `CC(C)C[C@@H](N)C(=O)Nc1ccc(-c2cn[nH]c2)c(OC(F)F)c1` [Example 41, 2-Amino-N-(3-(difluoromethoxy)-4-(1H-pyrazol-4-yl)phenyl)-4-methylpentanamide]: the IC50 came to 45 nM.

Consider `COc1cc(NC(=O)[C@H](N)CC2CCC2)ccc1-c1cnco1` [Example 6, (R)-2-Amino-3-cyclobutyl-N-(3-methoxy-4-(oxazol-5-yl)phenyl)propanamide], for which the IC50 was determined as 78 nM.

Regarding `COc1cc(NC(=O)[C@H](N)CC(C)C)ccc1-c1ccnc(Cl)c1` [Example 43, (R)-2-Amino-N-(4-(2-chloropyridin-4-yl)-3-methoxyphenyl)-4-methylpentanamide], the IC50 amounted to 260 nM.

Take `COc1cc(NC(=O)[C@H](N)CC(C)C)ccc1-c1cnc2ccc(Cl)nn12` [Example 47, (R)-2-Amino-N-(4-(6-chloroimidazo[1,2-b]pyridazin-3-yl)-3-methoxyphenyl)-4-methylpentanamide]: the IC50 amounted to 440 nM.

With `COc1cc(NC(=O)C(N)CC(C)C)ccc1-c1ccnc(N)c1` (stereo not shown) [Example 45, 2-Amino-N-(4-(2-aminopyridin-4-yl)-3-methoxyphenyl)-4-methylpentanamide], the IC50 stood at 150 nM.

`CC(=O)Nc1cc(-c2ccc(NC(=O)[C@H](N)CC(C)C)cc2)ccn1` [Example 118, (R)—N-(4-(2-Acetamidopyridin-4-yl)phenyl)-2-amino-4-methylpentanamide]: the IC50 stood at 6 nM.

Regarding `CC(C)C[C@@H](N)C(=O)Nc1ccc(-c2ccncc2)cc1` [Example 116, (R)-2-Amino-4-methyl-N-(4-(pyridin-4-yl)phenyl)pentanamide], the IC50 is 25 nM.

Consider `COc1cc(NC(=O)[C@H](N)CC(C)C)c(-c2nncs2)cc1-c1cnco1` [Example 103], for which the half-inhibitory concentration (IC50) stood at 360 nM.

As for `COc1cc(NC(=O)[C@@H](CC(C)C)NCc2ccsc2)ccc1-c1cnco1` [Example 65, (R)—N-(3-Methoxy-4-(oxazol-5-yl)phenyl)-4-methyl-2-((thiophen-3-ylmethyl)amino)pentanamide], the 50% inhibitory concentration (IC50) turned out to be 370 nM.

On to `COc1cc(NC(=O)[C@H](N)CC(C)(C)C)ccc1-c1cnco1` [Example 74, (R)-2-Amino-N-(3-methoxy-4-(oxazol-5-yl)phenyl)-4,4-dimethylpentanamide], for which the IC50 came out at 680 nM.

As for `COc1cc(NC(=O)[C@@H](CC(C)C)NCc2ccccc2O)ccc1-c1cnco1` [Example 62], the IC50 is 220 nM.

Consider `COc1cc(-c2cnco2)c(F)cc1NC(=O)[C@H](N)CC(C)C` [Example 107, (R)-2-Amino-N-(5-fluoro-2-methoxy-4-(oxazol-5-yl)phenyl)-4-methylpentanamide], for which the IC50 was determined as 84 nM.

For another experiment, the system named is mice. The experiment is described as follows: formalin paw test (paw flinching, pain response). The experiment is classed as in vivo, mouse. Particulars: 50 mg/kg sc; % response relative to gabapentin 200 mg/kg (=100%); compound given 30 minutes prior to formalin. The procedure:
AAK1 homozygous (−/−) and their wild-type (+/+) littermates were tested using the formalin paw test in order to assess their acute and tonic nociceptive responses. For these tests, Automatic Nociception Analyzers (purchased from the Ozaki lab at University of California, San Diego) were used. A metal band was placed around the left hind paw of each mouse 30 minutes prior to testing. After the 30-minute acclimation period, 20 μl of 5% formalin is subcutaneously injected in the dorsal surface of the left hind paw. Mice were individually housed in cylindrical chambers for 45 minutes. Fresh 5% formalin solution was prepared by diluting formaldehyde (Formalde-fresh 20%, Fisher Scientific, Fair Lawn, N.J.) with distilled water. Investigatory compounds were administered 30 minutes prior to formalin injection.
A computer recorded flinches per minute, total flinches for phase I (acute phase=first 8 minutes), and total flinches for phase II (tonic phase=time between minutes 20-40) through an electromagnetic field. See Yaksh T L, Ozaki G, McCumber D, Rathbun M, Svensson C, Malkmus S, Yaksh M C. An automated flinch detecting system for use in the formalin nociceptive bioassay. J Appl Physiol., 2001; 90:2386-402. Phase 1 and phase 2 data were obtained using homozygous (−/−) mice females (n=16), wild-type females (n=15), homozygous (−/−) mice males (n=9), and wild-type males (n=18).
The same test was used to confirm that the administration of an AAK1 inhibitor can also affect pain response.
A compound of the disclosure was tested in this assay at different doses. Gabapentin and pregabalin were used as positive controls. Results are shown below in Table 3, wherein the effect of gabapentin at 200 mg/kg is considered a 100% response, the % response for the other compounds is relative to the 200 mg/kg dose of gabapentin, “sc” means subcutaneous administration; “po” means oral administration.
In turn, `CC(C)C[C@H](CN)CC(=O)O` [Pregabalin, pregabalin] displayed a Response of 90%.

Consider `NCC1(CC(=O)O)CCCCC1` [Gabapentin], for which the Response is reported as 60%.

Still in this experiment, the particulars now being: 60 mg/kg sc; % response relative to gabapentin 200 mg/kg (=100%); compound given 30 minutes prior to formalin.
In the case of `COc1cc(NC(=O)[C@H](N)CC(C)C)ccc1-c1cnco1` [Example 1, (R)-2-Amino-N-(3-methoxy-4-(oxazol-5-yl)phenyl)-4-methylpentanamide], the Response is recorded as 90%.

The compound `CC(C)C[C@@H](N)C(=O)Nc1ccc(-c2cnco2)c(OC(F)F)c1` [Example 18, (R)-2-Amino-N-(3-(difluoromethoxy)-4-(oxazol-5-yl)phenyl)-4-methylpentanamide] displayed a Response of 100%.

The same experiment, now with this note: 200 mg/kg sc; gabapentin at 200 mg/kg is considered a 100% response.
`NCC1(CC(=O)O)CCCCC1` [Gabapentin] gave a Response of 100%.
